The values that follow come from US20220217972A1, “Methods for cryopreservation of sub-millimeter and millimeter scale biological materials” (Regents of the University of Minnesota, priority 2021, published 2022).

The subject of data set [1] is Drosophila melanogaster embryos. The data set can be described thus: Post cryopreservation survival (hatch rate and adult rate) of embryos. Type of data set: in vivo. The settings on record: strain M2; for post cryopreservation survival: replacing sorbitol as sugar in dehydration CPA.
Protocol: Step 1. Embryo collection and staging. On day 1, 700-1200 flies at the age of 1-4 days old were used to collect embryos at room temperature. Usually 4 bottles of flies were used, 8 or more bottles were used if needed. Flies were placed in an empty Drosophila bottle covered with a mesh cloth as a cap (FIG. 2A). Embryos were collected in a 1 hour period on a grape juice plate smeared with yeast paste. The first hour collection served as an egg clean-up procedure for the female flies and were abandoned. Disturbance of flies was minimized during embryo collection. Grape juice plates with collected embryos were labeled with the end time point of collection, for instance, 3 pm was used to label the collection from 2 pm to 3 pm. Embryos were placed in a temperature incubator at 20.1±0.05° C. (Heratherm purchased from Thermo Scientific) until reaching the desired stage for cryopreservation. 20° C. was selected so that optimal embryo age for cryopreservation will be achieved during a normal work hour on the following day. In this work, embryo collection occurred in the afternoon and usually 2-4 collections were performed.
Step 2. Dechorionation and permeabilization. On day 2, embryos were washed off from the grape juice plate into a nylon mesh basket and dechorionated in 50% bleach for 2-4 minutes. After rinsing with running tap water for 1-2 minutes to remove excess bleach, embryos along with the mesh basket were briefly blotted on paper towel and placed in the cryobuffer (20 mM NaCl, 2.7 mM KCl, 10 mM Na2HPO4, 1.8 mM KH2PO4, 4 mM MgCl2, 13 mM MgSO4, 60 mM Glycine, 60 mM Glutamic acid and 5 mM Malic acid, pH6.8, sterilized by filtration) in a 35 mm petri dish. Embryos were examined under a dissecting microscope to confirm the removal of chorions. In addition, the gut morphology was evaluated to verify the embryo stage (FIG. 2B).
Before permeabilization, ˜4 ml isopropanol, mixture of D-limonene and heptane (4:1 v/v), and heptane alone were added to three separate 35 mm glass petri dishes in a fume hood. […]
Step 3. […] The percentage of embryos that shrunk was recorded. […]
Data set [2] has the same test system. To be noted: permeable CPAs compared under the same weight concentration; strain M2.
Protocol: (§1) CPA loading and dehydration. Right after permeabilization, a brush was used to break up clumps into individual embryos floating as a monolayer with minimal overlap (FIG. 2B). […] The embryos should remain floating in order to maintain access to oxygen. After 3 min, “wrinkles” on the embryo surface were observed under a dissecting microscope, indicating volumetric shrinkage (i.e., losing water) in response to higher external osmolarity (FIG. 2C). The percentage of embryos that shrunk was recorded. The 13 weight percent EG petri dish was then placed in a humid chamber. At 25 min, embryos were inspected under a dissecting microscope to confirm that they swelled back to their original shape, indicating EG had entered the embryos. The percentage of embryos that swelled back was recorded.
Next, the mesh basket was blotted and placed in 39 weight percent EG+9 weight percent sorbitol solution prepared in cryobuffer on ice (i.e., ˜4° C.) for 9 min This step dehydrates the embryos (i.e., water loss) thereby elevating the intra-embryonic EG concentration to favor vitrification and avoidance of devitrification during the rewarming processes. In general, 5-6 ml dehydration CPA was used in a 35 mm petri dish.
At this point, intra-embryonic CPA concentration was elevated through dehydration by placing the embryos in a high concentration CPA (i.e., ˜39 weight percent) at 4° C. […]
Data set [3] shares this test system. The settings on record: 13 weight percent EG in cryobuffer; shrink at 3 min, swelled back at 25 min; correct stage, properly permeabilized.
Protocol: as §1

For `OCCO` [EG, ethylene glycol], in data set [1] (permeable CPAs compared under the same weight concentration), the survival post cryopreservation result is given as “highest survival post cryopreservation”. Moreover, the “CPA toxicity (post dehydration survival)” value in data set [2] is reported as “least CPA toxicity”. The “embryos that shrink and swell” value in data set [3] is greater than 90%.
Turning to `OC[C@H]1O[C@@](CO)(O[C@H]2O[C@H](CO)[C@@H](O)[C@H](O)[C@H]2O)[C@@H](O)[C@@H]1O` [sucrose], the post cryopreservation survival result in data set [1] was “did not affect post cryopreservation survival”.
As to `C[S+](C)[O-]` [DMSO, dimethyl sulfoxide], the “CPA toxicity (post dehydration survival)” value in data set [2] is recorded as “highest CPA toxicity”.
Regarding `OC[C@H]1O[C@H](O[C@H]2O[C@H](CO)[C@@H](O)[C@H](O)[C@H]2O)[C@H](O)[C@@H](O)[C@@H]1O` [trehalose], the post cryopreservation survival entry in data set [1] was “did not affect post cryopreservation survival”.
